Results from patent US10653131B2 (priority 2013, dated 2020).

System: spores of Bacillus thuringiensis

For `O=[N+]([O-])O` [nitric acid], the “destruction, inactivation of spores” value was “ensured destruction, inactivation”.
